Results reported in patent US20250382439A1, “BLUE LIGHT BLOCKING COMPOUND, BLUE LIGHT BLOCKING COMPOSITION, USE OF BLUE LIGHT BLOCKING COMPOUND, USE OF BLUE LIGHT BLOCKING COMPOSITION AND METHOD FOR PREPARING BLUE LIGHT BLOCKING COMPOUND” (Visco Vision Inc., priority 2024, published 2025).

Experiments:
Type in all cases: physicochemical
[1] = Miscibility evaluation: blue light blocking compound dissolved in HEMA and in a silicone hydrogel contact lens composition
[2] = as above; details: the higher the value, the greater the miscibility; for miscibility in silicone hydrogel contact lens composition: composition with hydrophilic monomer, first siloxane monomer and second siloxane monomer; for miscibility in HEMA: dissolved in 2-hydroxyethyl methacrylate (HEMA)
Protocol: The blue light blocking compounds of Examples 1 to 3 and Comparative Example 1 are dissolved in 2-hydroxyethyl methacrylate (represented by HEMA in the table, which is also the hydrophilic monomer used to manufacture the ophthalmic device) and a silicone hydrogel contact lens composition for observing the miscibility, and the results are shown in the following TABLE 1. The higher the value in the TABLE 1, the greater the miscibility. The silicone hydrogel contact lens composition used in the miscibility evaluation includes a polymerizable monomer, and the polymerizable monomer includes a hydrophilic monomer, a first siloxane monomer and a second siloxane monomer.

[3] = Blue light absorbance evaluation of ophthalmic devices (absorption spectrum, UV-VIS spectrophotometer SHIMADZU UV-2600); details: 380 nm to 460 nm
Excerpt: The above components can be mixed in a specific ratio to form the blue light blocking composition for manufacturing an ophthalmic device. In an embodiment, the blue light blocking composition of the present disclosure may be put into a contact lens mold, and components in the blue light blocking composition undergo a curing reaction (thermal curing reaction or photo curing reaction) through heating or irradiating light to form an ophthalmic device. The heating temperature may be between about 30° C. and about 150° C., and the heating time may be between about 1 hour and 12 hours. In an embodiment, the reaction conditions can be heating at 30-70° C. for 0-2 hours, heating at 70-100° C. for 2-4 hours, and heating at 100-150° C. for 4-12 hours. In an embodiment, a hydration process and/or a sterilization process can be performed after the curing reaction. […]
The ophthalmic devices of Examples 4 to 9 and Comparative Examples 2 and 3 are subjected to a blue light absorbance evaluation. The blue light absorbance is measured by absorption spectrum with UV-VIS spectrophotometer (SHIMADZU UV-2600). The blue light absorbance represents the amount of blue light with a wavelength between 380 nm and 460 nm that are absorbed by silicone hydrogel contact lens.

miscibility in silicone hydrogel contact lens composition [2] | miscibility in HEMA [2] | blue light absorbance ([3]; ophthalmic device from silicone hydrogel contact lens composition with 1.5% of the compound) | blue light absorbance ([3]; ophthalmic device from silicone hydrogel contact lens composition with 2% of the compound) | Structure (SMILES) | miscibility with the silicone hydrogel contact lens compositions (observation) ([1]; addition amount 1.0%) | usable addition amount in silicone hydrogel contact lens composition ([1]; concluded from TABLE 2)
4.0% | 25% | 56.1% | 65.3% | C=C(C)C(=O)OCCOC(=O)/C(=C/c1ccc(N(C)C)cc1)C(=O)OC [Example 1] | – | –
4.6% | 67% | – | – | C=C(C)C(=O)OCCOC(=O)C(=Cc1ccc(N(C)C)cc1)C(=O)OCCOC(=O)C(=C)C [Example 2] | – | –
1.5% | 47% | – | – | C=C(C)C(=O)OCCNC(=O)/C(=C/c1ccc(N(C)C)cc1)C(=O)OC [Example 3] | – | –

Structure (SMILES) | miscibility in silicone hydrogel contact lens composition [2] | miscibility in HEMA [2] | blue light absorbance ([3]; ophthalmic device from silicone hydrogel contact lens composition with 1.5% of the compound) | blue light absorbance ([3]; ophthalmic device from silicone hydrogel contact lens composition with 2% of the compound) | miscibility with the silicone hydrogel contact lens compositions (observation) ([1]; addition amount 1.0%) | usable addition amount in silicone hydrogel contact lens composition ([1]; concluded from TABLE 2)
C=CS(=O)(=O)c1cc(OC)c(/N=N/C2C(=O)N(c3ccc(S(=O)(=O)[O-])cc3)N=C2C)cc1C.[Na+] (stereo not drawn) [Comparative Example 1, reference compound] | 0.1% | 5% | – | – | precipitation occurs | less than 1.0%
